The structures appear in SMILES notation.

The experiment in a line: Displacement of [3H]PAF from rabbit PAF receptor. Also on record: species or system Oryctolagus cuniculus.

Take `O=C(/C=C/CCc1ccccc1)CCc1ccccc1`: the IC50 came out at 5 µM.
As for `COC(CCc1ccccc1)CC(=O)CCc1ccccc1` (stereo not drawn), the figure is 1.6 µM.
For `O=C(/C=C/C(O)Cc1ccccc1)CCc1ccccc1` (stereo not drawn) the value was 1.3 µM.

Values taken from ChEMBL document CHEMBL1138279, “Platelet-activating factor (PAF) receptor binding antagonists from Alpinia officinarum” (Bioorg Med Chem Lett, 2007).
